According to patent US5591709A, “Compositions and methods for treating wounds” (Life Medical Sciences, Inc., priority 1995, dated 1997):

System: 2×3 cm full-thickness skin wounds on the dorsum
Assay: Guinea pig full-thickness skin wound closure (fractional change in wound area, closure rate, peak closure day)
Assay type: in vivo, Hartley-derived guinea pigs
Details: for Peak Closure Day (% Closure): % closure at the peak closure day; for Peak Closure Day: day of maximum closure rate, gel every 48 hours; for Closure % (Day) 50%: day on which 50% wound closure was reached, gel about 1 cc/cm^2 every 48 hours; for Peak closure rate (comparison in words): hormones in Agarose in saline (no medium), singly or three together; for Peak closure rate occurred later / closure rate of 50% slower: single hormone in Agarose in media; for Peak closure rate occurred later: compared to Media+3 hormones together; for closure rate of 50% slower: compared to the combination of the three hormones in media; for wound healing activity in medium relative to the same in saline: Agarose in medium vs Agarose in saline (without medium); for closure of 50% faster: single hormone in Agarose in saline (no medium), comparator not clearly stated
Description: Under general anaesthesia of […], four 2×3 cm full-thickness skin patches were surgically extirpated from the dorsum of Hartley-derived guinea pigs. After application of the gel (about 1 cc/cm^2) to the wounds, the wounds were dressed with Omiderm, a polyurethane-based synthetic wound dressing (Omikron, Israel) and anchored with gauze and elastic adhesive bandage. Change of the bandages and administration of the gels were performed every 48 hours, under general anaesthesia, at which time in one group, the wounds were washed with ESDC disinfectant (Symbollon Corp., Mass., USA), washed with warm saline, measured and photographed. Computerized morphometric measurements of the photographs were made and the dynamics of the regeneration process were quantified and analyzed. A more detailed description and the results of these experiments is presented herein. Hartley-derived Albino guinea pigs weighing 300-400 grams were used in this study. The animals were housed in individual cages and fed regularly guinea pig chow and water enriched with Vitamin C ad libitum. […] All histological sections were prepared using Hematoxylene and Eosin stain as well as Mason's trichrome method for collagen. Each animal was anesthetized and four bilaterally symmetrical full-thickness skin segments measuring 2×3 cm were excised from the dorsum of each animal, two from the scapular region and two from the lumbar region. After washing the wounds with warm saline, the wounds were dressed with the gel at a concentration of about 1 cc/cm^2, covered with a polyurethane based synthetic membrane Omiderm (Omikron, Israel) and anchored with gauze, elastic adhesive and a […]., Italy). The dressings were changed every 48 hours under general anaesthesia, at which time the wounds were washed with warm saline to remove any debris and the remaining gel within the wound, measured, photographed and fresh gel was applied and the wounds dressed as described above. In one experiment, a disinfectant compress of ESDC (Symbollon, Corp.) was applied during the change of dressing for about ten minutes, preceded and followed by warm saline rinse. At days 4, 6, 8, 10 and 12, the animals were sacrificed and the wounds with the surrounding tissues were extirpated and prepared for histological examination. The thickness of the newly formed epithelial layer and of the underlying granulation tissue were measured using light microscopy (Zeiss) at 100×magnification. The wound macrophotographs were analyzed using ImageMeasure (Phoenix Corp., Seattle, Wash.) computerized morphometric program and the experimental results were plotted as graphs showing the fractional change in area (i.e. closure rate) of the wounds treated with gel-media+hormones versus the various controls. The wound closure rate was tabulated and peak closure day (% closure) was determined. Peak closure rate has been used as a measure of wound healing potency. Peak closure rate is the maximum slope of the [formula] vs. time curve. Peak closure rate indicates the time after the start of the treatment at which tissue healing or growth rate reaches a maximum value (maximum rate); i.e., when the treatment is optimal.

| Compound | concentration level relative to triiodothyronine giving the same effect (relative to triiodothyronine) | Peak Closure Day (% Closure) [%] | Peak Closure Day [days] | Closure % (Day) 50% [days] | Peak closure rate (comparison in words) | Peak closure rate occurred later [%] | closure rate of 50% slower [%] | wound healing activity in medium relative to the same in saline | wound healing, medium plus insulin vs medium plus IGF (Agarose in medium, IGF at 8 ng/ml, through day 9) | closure of 50% faster [%] |
| --- | --- | --- | --- | --- | --- | --- | --- | --- | --- | --- |
| N[C@@H](Cc1cc(I)c(Oc2cc(I)c(O)c(I)c2)c(I)c1)C(=O)O [thyroxine, reference compound] | 3-5 times | – | – | – | – | – | – | – | – | – |
| Growth Hormone: human growth hormone at 2 ng/ml in Agarose gel, in saline or in medium | – | 50 | 6.0 | 6.0 | the same | 33 | 75 | – | – | – |
| Insulin | – | 30 | 3.0 | 5.0 | the same | 33 | 75 | substantially enhanced wound healing activity | substantially better | 15 |
| Triiodothyronine/thyroxine [reference compound] | – | 30 | 3.0 | 5.0 | the same | 33 | 75 | substantially enhanced wound healing activity | – | 15 |
